Key:
Test in all cases: radiometric filter-binding kinase assay
Details in all cases: compound 100.0 µM
CDK2 CCNA2 (human) = CDK2 CCNA2 (human) (UniProt P20248+P24941)
STK3 (human) = STK3 (human) (UniProt Q13188)
MARK4 (human) = MARK4 (human) (UniProt Q96L34)
MAP3K5 (human) = MAP3K5 (human) (UniProt Q99683)
PIM1 (human) = PIM1 (human) (UniProt P11309)
CHEK1 (human) = CHEK1 (human) (UniProt O14757)
MKNK2 (human) = MKNK2 (human) (UniProt Q9HBH9)
TTK (human) = TTK (human) (UniProt P33981)
PKN2 (human) = PKN2 (human) (UniProt Q16513)
DAPK1 (human) = DAPK1 (human) (UniProt P53355)
YES1 (human) = YES1 (human) (UniProt P07947)
RPS6KA5 KD1 KD2 (human) = RPS6KA5 KD1 KD2 (human) (UniProt O75582)
IKBKB (human) = IKBKB (human) (UniProt O14920)
MAPK9 (human) = MAPK9 (human) (UniProt P45984)
EPHB1 (human) = EPHB1 (human) (UniProt P54762)
MAPKAPK2 (human) = MAPKAPK2 (human) (UniProt P49137)
INSRR (human) = INSRR (human) (UniProt P14616)
MYLK (human) = MYLK (human) (UniProt Q15746)
EPHB4 (human) = EPHB4 (human) (UniProt P54760)
BTK (human) = BTK (human) (UniProt Q06187)
SRPK1 (human) = SRPK1 (human) (UniProt Q96SB4)
MAP2K1 (human) = MAP2K1 (human) (UniProt Q02750)
EEF2K (human) = EEF2K (human) (UniProt O00418)
MAP2K2 (human) = MAP2K2 (human) (UniProt P36507)
PIM3 (human) = PIM3 (human) (UniProt Q86V86)
MAP3K9 (human) = MAP3K9 (human) (UniProt P80192)
EPHA4 (human) = EPHA4 (human) (UniProt P54764)
PAK6 (human) = PAK6 (human) (UniProt Q9NQU5)
TBK1 (human) = TBK1 (human) (UniProt Q9UHD2)
MARK3 (human) = MARK3 (human) (UniProt P27448)
[1] = tested on: PAK2 (human), Q13177 [T402E]
[2] = tested on: RPS6KB1 (human), P23443 [T412E]
PIM2 (human) = PIM2 (human) (UniProt Q9P1W9)
GCK (human) = GCK (human) (UniProt Q12851)
CSNK2A1 (human) = CSNK2A1 (human) (UniProt P68400)

PIM1 (human), sequence (P11309 whole entry, looked up): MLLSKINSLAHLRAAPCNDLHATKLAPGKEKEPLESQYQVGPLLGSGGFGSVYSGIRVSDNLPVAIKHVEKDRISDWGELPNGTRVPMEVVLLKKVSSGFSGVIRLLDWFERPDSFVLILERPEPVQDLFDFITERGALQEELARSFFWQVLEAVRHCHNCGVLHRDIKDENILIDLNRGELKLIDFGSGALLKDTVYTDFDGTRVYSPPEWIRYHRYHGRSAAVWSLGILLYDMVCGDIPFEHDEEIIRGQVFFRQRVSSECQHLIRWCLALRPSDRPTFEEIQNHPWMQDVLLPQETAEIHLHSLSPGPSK
PAK6 (human), sequence (Q9NQU5 whole entry, looked up): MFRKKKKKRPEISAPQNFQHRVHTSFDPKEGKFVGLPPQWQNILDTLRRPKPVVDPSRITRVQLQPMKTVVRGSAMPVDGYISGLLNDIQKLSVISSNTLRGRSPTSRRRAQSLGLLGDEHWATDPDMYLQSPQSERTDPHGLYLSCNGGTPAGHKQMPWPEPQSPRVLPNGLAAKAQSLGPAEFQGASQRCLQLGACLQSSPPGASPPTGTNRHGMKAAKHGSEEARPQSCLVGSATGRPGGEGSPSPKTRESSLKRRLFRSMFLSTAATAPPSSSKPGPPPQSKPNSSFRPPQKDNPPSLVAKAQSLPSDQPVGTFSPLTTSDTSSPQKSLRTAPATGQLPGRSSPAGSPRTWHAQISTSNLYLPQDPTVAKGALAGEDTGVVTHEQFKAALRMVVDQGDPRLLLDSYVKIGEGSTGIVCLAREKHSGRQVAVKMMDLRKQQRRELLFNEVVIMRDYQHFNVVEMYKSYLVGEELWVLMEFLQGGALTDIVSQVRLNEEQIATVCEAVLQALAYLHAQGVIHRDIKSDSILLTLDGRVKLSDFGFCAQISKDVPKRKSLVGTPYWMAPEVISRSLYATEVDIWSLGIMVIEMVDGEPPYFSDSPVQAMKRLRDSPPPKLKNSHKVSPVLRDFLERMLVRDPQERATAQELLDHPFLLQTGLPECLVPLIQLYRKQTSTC
INSRR (human), sequence (P14616 whole entry, looked up): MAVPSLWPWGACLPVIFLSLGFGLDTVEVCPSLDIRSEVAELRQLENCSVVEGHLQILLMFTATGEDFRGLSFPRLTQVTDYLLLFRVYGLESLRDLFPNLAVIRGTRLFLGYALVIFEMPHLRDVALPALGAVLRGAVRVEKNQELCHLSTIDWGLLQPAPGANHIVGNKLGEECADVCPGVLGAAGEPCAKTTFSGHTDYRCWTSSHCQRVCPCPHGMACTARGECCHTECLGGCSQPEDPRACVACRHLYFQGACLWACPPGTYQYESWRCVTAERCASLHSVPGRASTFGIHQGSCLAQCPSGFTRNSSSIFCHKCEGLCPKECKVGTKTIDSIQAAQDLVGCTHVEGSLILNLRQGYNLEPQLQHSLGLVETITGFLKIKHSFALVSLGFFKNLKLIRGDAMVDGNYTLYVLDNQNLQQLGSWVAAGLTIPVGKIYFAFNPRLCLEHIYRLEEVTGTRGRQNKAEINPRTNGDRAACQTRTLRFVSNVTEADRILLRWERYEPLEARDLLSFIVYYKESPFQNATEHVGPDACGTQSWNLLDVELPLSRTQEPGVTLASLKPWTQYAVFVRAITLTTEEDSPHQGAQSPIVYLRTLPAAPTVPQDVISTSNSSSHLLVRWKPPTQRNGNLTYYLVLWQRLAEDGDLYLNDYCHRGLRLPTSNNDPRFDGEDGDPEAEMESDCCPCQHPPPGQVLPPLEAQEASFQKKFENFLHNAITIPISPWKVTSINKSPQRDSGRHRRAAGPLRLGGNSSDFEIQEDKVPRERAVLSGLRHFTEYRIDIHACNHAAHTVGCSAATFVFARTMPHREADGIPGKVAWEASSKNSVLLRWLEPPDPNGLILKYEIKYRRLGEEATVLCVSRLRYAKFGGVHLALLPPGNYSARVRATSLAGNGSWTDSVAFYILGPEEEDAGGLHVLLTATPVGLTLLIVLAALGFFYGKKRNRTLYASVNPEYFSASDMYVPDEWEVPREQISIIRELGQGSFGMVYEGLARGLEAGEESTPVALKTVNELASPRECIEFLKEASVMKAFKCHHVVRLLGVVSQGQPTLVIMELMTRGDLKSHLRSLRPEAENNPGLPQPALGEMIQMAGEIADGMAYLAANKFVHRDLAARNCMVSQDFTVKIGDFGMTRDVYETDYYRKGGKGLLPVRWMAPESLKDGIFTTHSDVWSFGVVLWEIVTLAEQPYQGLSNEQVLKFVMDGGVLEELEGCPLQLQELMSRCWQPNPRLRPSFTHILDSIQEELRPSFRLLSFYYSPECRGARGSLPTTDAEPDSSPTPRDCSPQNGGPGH
EEF2K (human), sequence (O00418 whole entry, looked up): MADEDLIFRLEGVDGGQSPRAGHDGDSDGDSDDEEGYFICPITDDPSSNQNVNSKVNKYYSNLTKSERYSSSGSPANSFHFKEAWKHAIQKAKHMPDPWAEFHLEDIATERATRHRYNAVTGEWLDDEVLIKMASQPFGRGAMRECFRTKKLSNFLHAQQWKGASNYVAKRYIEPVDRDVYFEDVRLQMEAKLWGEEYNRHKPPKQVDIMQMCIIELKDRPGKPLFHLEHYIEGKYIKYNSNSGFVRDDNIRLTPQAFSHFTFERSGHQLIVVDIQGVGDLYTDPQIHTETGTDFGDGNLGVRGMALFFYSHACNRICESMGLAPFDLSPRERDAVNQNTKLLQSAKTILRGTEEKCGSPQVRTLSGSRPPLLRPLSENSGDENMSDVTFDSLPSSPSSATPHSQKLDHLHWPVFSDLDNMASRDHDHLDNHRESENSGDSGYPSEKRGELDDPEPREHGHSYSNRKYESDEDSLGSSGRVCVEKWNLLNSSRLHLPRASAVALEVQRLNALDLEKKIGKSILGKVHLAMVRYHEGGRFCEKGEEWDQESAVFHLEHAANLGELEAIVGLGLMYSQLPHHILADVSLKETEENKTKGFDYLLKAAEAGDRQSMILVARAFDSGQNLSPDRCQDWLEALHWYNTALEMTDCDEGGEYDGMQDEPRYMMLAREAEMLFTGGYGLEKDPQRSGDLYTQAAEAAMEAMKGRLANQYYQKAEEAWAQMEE
GCK (human), sequence (Q12851 whole entry, looked up): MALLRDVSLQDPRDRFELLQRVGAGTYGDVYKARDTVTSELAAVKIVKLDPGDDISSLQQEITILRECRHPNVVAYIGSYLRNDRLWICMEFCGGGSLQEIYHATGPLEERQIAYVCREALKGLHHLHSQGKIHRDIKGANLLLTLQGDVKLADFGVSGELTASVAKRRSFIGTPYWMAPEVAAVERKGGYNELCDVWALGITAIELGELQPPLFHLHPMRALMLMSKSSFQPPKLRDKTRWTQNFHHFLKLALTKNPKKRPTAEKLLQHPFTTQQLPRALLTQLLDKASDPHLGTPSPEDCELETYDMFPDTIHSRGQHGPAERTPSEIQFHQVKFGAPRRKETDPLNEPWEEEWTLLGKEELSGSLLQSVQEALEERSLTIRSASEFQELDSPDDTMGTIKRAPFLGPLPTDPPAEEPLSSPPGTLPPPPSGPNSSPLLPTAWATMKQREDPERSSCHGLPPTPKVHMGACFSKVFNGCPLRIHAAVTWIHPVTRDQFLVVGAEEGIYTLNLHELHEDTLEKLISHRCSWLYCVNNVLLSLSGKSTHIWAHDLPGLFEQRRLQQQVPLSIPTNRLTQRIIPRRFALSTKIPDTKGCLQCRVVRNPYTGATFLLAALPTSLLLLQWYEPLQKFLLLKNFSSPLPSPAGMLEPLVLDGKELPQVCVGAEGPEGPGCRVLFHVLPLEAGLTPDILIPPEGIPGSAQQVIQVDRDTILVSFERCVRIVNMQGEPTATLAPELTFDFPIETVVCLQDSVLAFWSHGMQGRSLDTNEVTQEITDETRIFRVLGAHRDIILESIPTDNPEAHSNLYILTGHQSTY
MARK4 (human), sequence (Q96L34 whole entry, looked up): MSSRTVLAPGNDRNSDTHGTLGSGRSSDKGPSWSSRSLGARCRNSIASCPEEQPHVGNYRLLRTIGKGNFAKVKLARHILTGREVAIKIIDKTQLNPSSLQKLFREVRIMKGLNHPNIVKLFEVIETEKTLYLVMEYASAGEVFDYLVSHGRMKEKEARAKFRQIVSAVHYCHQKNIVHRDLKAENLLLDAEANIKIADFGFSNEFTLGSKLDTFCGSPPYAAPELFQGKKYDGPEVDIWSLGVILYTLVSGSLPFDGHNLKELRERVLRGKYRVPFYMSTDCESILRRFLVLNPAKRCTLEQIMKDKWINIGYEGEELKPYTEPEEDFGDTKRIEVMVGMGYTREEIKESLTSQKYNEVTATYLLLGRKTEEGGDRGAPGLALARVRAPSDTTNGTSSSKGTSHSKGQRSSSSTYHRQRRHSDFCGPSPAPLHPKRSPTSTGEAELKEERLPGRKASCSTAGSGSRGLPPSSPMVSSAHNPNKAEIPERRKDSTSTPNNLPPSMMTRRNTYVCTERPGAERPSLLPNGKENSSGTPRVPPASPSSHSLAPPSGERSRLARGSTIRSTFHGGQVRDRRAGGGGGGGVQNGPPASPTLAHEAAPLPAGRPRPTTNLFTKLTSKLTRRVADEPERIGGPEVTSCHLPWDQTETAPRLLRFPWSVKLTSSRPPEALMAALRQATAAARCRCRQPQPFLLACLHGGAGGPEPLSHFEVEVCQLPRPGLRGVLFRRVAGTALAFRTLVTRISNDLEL
MAP2K2 (human), sequence (P36507 whole entry, looked up): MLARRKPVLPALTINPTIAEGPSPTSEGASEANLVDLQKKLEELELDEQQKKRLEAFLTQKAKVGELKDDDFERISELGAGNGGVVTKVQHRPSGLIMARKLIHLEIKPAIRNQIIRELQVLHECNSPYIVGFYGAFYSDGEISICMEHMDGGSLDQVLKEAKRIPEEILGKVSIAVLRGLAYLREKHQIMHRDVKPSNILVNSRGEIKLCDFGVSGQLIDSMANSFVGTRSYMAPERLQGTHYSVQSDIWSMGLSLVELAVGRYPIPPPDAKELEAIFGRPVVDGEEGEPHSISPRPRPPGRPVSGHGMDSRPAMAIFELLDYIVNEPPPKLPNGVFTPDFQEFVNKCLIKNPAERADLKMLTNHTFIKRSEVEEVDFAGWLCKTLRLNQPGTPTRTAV

`Cc1cc(N=Nc2cc(S(=O)(=O)O)c(C)cc2C)c(N)cc1O` showed a residual activity (CDK2 CCNA2 (human)) of 94%, a residual activity (STK3 (human)) of 81% and a residual activity (MARK4 (human)) of 81%. The residual activity (MAP3K5 (human)) was 151%, the residual activity (PIM1 (human)) was 62% and the residual activity (CHEK1 (human)) was 196%. The residual activity (MKNK2 (human)) was 100%, the residual activity (TTK (human)) was 90% and the residual activity (PKN2 (human)) was 126%. It also gave a residual activity (DAPK1 (human)) of 82%, a residual activity (YES1 (human)) of 52% and a residual activity (RPS6KA5 KD1 KD2 (human)) of 84%. It also gave a residual activity (IKBKB (human)) of 97%, a residual activity (MAPK9 (human)) of 112% and a residual activity (EPHB1 (human)) of 97%. The residual activity (MAPKAPK2 (human)) was 107%, the residual activity (INSRR (human)) was 103% and the residual activity (MYLK (human)) was 97%. For the same compound, the residual activity (EPHB4 (human)) was 123%, the residual activity (BTK (human)) was 102% and the residual activity (SRPK1 (human)) was 59%. For the same compound, the residual activity (MAP2K1 (human)) was 103%, the residual activity (EEF2K (human)) was 92% and the residual activity (MAP2K2 (human)) was 109%. It also gave a residual activity (PIM3 (human)) of 45%, a residual activity (MAP3K9 (human)) of 58% and a residual activity (EPHA4 (human)) of 92%. For the same compound, the residual activity (PAK6 (human)) was 96%, the residual activity (TBK1 (human)) was 94% and the residual activity (MARK3 (human)) was 96%. The residual activity [1] was 100%, the residual activity [2] was 102% and the residual activity (PIM2 (human)) was 58%. It also gave a residual activity (GCK (human)) of 80% and a residual activity (CSNK2A1 (human)) of 51%.
